These results are taken from patent US9422254B2, “Methoxyacrylate-based fungicide and methods for preparing and using the same” (priority 2008, dated 2016).

Holding throughout (type): biochemical
The target of experiment [1] is T1, cytochrome bc1 complex of pig heart (Sus scrofa, UniProt P24964).
T1 construct: The test target is cytochrome bc1 complex of pig heart; from tissue; host or cells: pig heart
Description: Enzyme activity test, Complex III. The note with it: cytochrome bc1 complex of pig heart; read-out: IC50 (nM) Complex III. The protocol: (§1) Take NADH oxidase (NOX), succinate-cytochrome C oxidase (SCO), and Complex III as target enzymes, the inhibitory activity of the compound of Formula (I) was tested.
^b The test target is cytochrome bc1 complex of pig heart.

The next experiment deals with NADH oxidase (NOX) (Sus scrofa, UniProt P24964). Description: Enzyme activity test, NOX. As to the method:
as §1
(§2) ^a NOX is generally used to detect an inhibitor of Complex I and Complex III; SCO is generally used to detect an inhibitor of Complex II and Complex III. Thus, an inhibitor of Complex III should have inhibitory activity on the two enzymes.

Experiment [2] has as its target succinate-cytochrome C oxidase (SCO) (Sus scrofa, UniProt P24964). Description: Enzyme activity test, SCO. As to the method:
as §1, §2

T1 sequence (P24964 whole entry, one chain of several): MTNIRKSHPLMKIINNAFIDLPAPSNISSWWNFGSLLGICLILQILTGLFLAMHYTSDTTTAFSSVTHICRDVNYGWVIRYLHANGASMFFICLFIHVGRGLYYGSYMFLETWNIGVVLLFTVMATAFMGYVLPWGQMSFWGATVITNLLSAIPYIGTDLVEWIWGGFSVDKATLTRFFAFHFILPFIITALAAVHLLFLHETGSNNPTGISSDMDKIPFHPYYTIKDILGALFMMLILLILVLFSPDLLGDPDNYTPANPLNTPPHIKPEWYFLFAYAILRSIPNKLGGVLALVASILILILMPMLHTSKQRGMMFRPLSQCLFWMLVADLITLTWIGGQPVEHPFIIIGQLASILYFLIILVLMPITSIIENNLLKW
NADH oxidase (NOX), sequence (P24964 whole entry): as the sequence (P24964 whole entry, one chain of several) above
succinate-cytochrome C oxidase (SCO), sequence (P24964 whole entry): as the sequence (P24964 whole entry, one chain of several) above

As to `CO/C=C(/C(=O)OC)c1ccccc1Oc1cc(Oc2ccccc2C#N)ncn1` [Azoxystrobin, azoxystrobin, reference compound], the half-maximal inhibitory concentration (IC50) was 200 nM in experiment [1], 27 nM at NADH oxidase (NOX) and 13 nM in experiment [2].

Broadly, the IC50 is the concentration that gives 50% inhibition.
